This note sets out measurements from patent publication US20080306047A1, “Use of Aza-Phenylalanine Compounds For Treating Cardiac Arrhythmia” (priority 2005, published 2008).

The test system of assay [1] is isolated rat hearts. The assay is described as follows: Reperfusion-induced arrhythmia in isolated rat hearts (Langendorff) subjected to 40-min global ischemia. Details: species or system Wistar rats. The note with it: 40-min ischemia, 50 min reperfusion, drug 1 μM in K-H solution, mean ± SEM. On the procedure:
Wistar rats (230-330 g) are anaesthetized by intraperitoneal injection of urethane (0.7 ml 20% w/v solution/100 g body weight), followed by intraperitoneal injection of heparin (2500 IU/rat). Having opened the thorax a cannula filled with cold Krebs-Henseleit (K-H) solution is inserted into the ascending aorta. After that the heart is excised, it is connected to Langendorff's apparatus and perfused with K-H solution (K-H solution, in mM: 118.6 NaCl; 4.7 KCl; 11.1 glucose; 25 NaHCO3; 1.66 MgSO4; 1.2 NaH2PO4, 2.52 […]; pH=7.4) under constant pressure (60 cm H2O). Prior to use, the K-H perfusion solution is passed through a cellulose acetate filter (pore size 5 μm) to remove any particulate impurities. The perfusion solution is kept at 38.5° C. and gassed with 95% O2 and 5% CO2. Two silver (AgCl) electrodes are set on the surface of the heart in the direction of electrical axis of the heart for recording electrocardiogram. Electrodes are placed on the heart in such a position that a sufficient amplitude of P wave and QRS complex is obtained. The following experimental groups are studied: 1) isolated hearts are perfused with oxygenated K-H solution for 30 min followed by 40 min of global ischemia and followed by 50 min of reperfusion with oxygenated K-H solution; 2) isolated hearts are perfused with oxygenated K-H solution for 20 min, followed by 10 min perfusion with experimental drug dissolved in K-H and then the hearts are exposed to 40 min of global ischemia followed by 50 min reperfusion with experimental drug dissolved in K-H. The used experimental drugs are compounds of formulae IV, V and VI as defined above. As a positive control direct thrombin inhibitor argatroban and low molecular weight heparin nadroparin are used. The hearts are monitored for the duration of proarrhythmic events according to the Lambeth convention (Walker et al., Cardiovascular Res 1988; 22: 447-455). Lactate dehydrogenase (LDH) release rate is determined spectophotometrically (Wroblevski & LaDue, Proc Exp Biol Med 1955; 90: 210-213) in the coronary effluent and is expressed in μkat per minute and per weight of the heart (Grasic Kuhar et al. Eur J Pharmacol 2004; 488: 137-46).

Assay [2] concerns isolated rat hearts. The assay is described as follows: Reperfusion-induced arrhythmia in isolated rat hearts (Langendorff), 25-min global no-flow ischemia, 30 min reperfusion. The note with it: 1 μM and 10 μM (+DMSO 500 μL/L), n=12. Details: species or system Wistar rats. On the procedure:
Hearts from male Wistar rats (300-370 g) anesthetized with diethyl-ether inhalation were perfused with Krebs-Henseleit buffer at 37° C. gassed with carbogen in Langendorff mode as described (Onody A et al., Cardiovasc Res. 2003, 58: 663-670). After an initial 15 min aerobic, normothermic perfusion period, hearts are subjected to 25-min of global, no-flow, normothermic ischemia, followed by 30 min normoxic, normothermic reperfusion. Measured parameters were heart rate and incidence of reperfusion-induced ventricular fibrillation (VF) and ventricular tachycardia (VT). Epicardial electrocardiogram was recorded throughout the experimental protocol to determine heart rate, VF and VT according to the Lambeth conventions (Walker et al., Cardiovasc Res. 1988; 22: 447-455) as described (Csonka et al., 2003; J Cardiovasc Pharmacol 41: 916-922; Ferdinandy et al., Cardiovasc Res. 1995; 58: 663-670.). Recording and evaluation of the ECG was performed using the SPEL Advanced Isosys system (Experimetria Ltd, Budapest, Hungary). Experimental groups were designed as follows: control, solvent (DMSO 500 μL/L), compound of formula IV at 1 μM (+DMSO 500 μL/L), compound of formula IV at 10 μM (+DMSO 500 μL/L), positive control: nifedipine at 0.5 μM (+DMSO 500 μL/L). Animals were randomly assigned to the different groups, however, perfusions were done in 4 parallel experiments within a group (n=12 in each group). The perfusion medium contained the drugs throughout the entire perfusion protocol in the treated groups. HR was compared to the solvent-treated group using ANOVA followed by Dunn's test. The incidence of VF and VT were compared with Chi^2 test in all groups, than each group was compared to the solvent-treated group using the Fischer's exact test.
Compound of formula IV was tested at 10 μM (Compound of formula IV, 10 μM) and 1 μM (Compound of formula IV, 1 μM), nifedipine was tested at 0.5 μM. Chi^2 test followed by the Fischer's exact test. * p<0.05; ** p<0.01; ## p<0.01 (all groups compared to DMSO group)

With `CC1CNc2c(cccc2S(=O)(=O)N[C@@H](CCCNC(=N)N)C(=O)N2CC[C@@H](C)C[C@@H]2C(=O)O)C1` (stereo partly drawn) [Argatroban, argatroban, reference compound], in the assay with isolated rat hearts [1], the “Duration VF (ventricular fibrillation)” value amounted to 583.6 ± 228.6 s; the “Duration VT (ventricular tachycardia)” value is 828.7 ± 233.7 s; the “Duration of all proarrhythmic events (VT, VF, extrasystolia and asystolia)” value (shortened to “Duration of all proarrhythmic events”) came out at 1731.0 ± 445.0 s.

For `N=C(N)c1cccc(CN(NS(=O)(=O)c2ccc3ccccc3c2)C(=O)N2CCCCCC2)c1` [Compound IV], in the assay on isolated rat hearts [2] (compared to DMSO group), the “incidence of reperfusion-induced ventricular fibrillation (VF)” value is listed as “concentration-dependently decreased” and the “incidence of reperfusion-induced ventricular tachycardia (VT)” value is recorded as “not significantly changed”. Further, in the assay with isolated rat hearts [2] (compared to solvent-treated group), the “heart rate (HR)” value is recorded as “not significantly changed”. In the assay with isolated rat hearts [1], the “Duration VF (ventricular fibrillation)” value came to 78.6 ± 42.6 s; the “Duration VT (ventricular tachycardia)” value is 87.2 ± 53.3 s; the “Duration of all proarrhythmic events” value came out at 353.3 ± 148.1 s.

With `N=C(N)c1cccc(CN(NS(=O)(=O)Cc2ccccc2F)C(=O)N2CCCCCC2)c1` [Compound VI], in the assay on isolated rat hearts [1], the “Duration VF (ventricular fibrillation)” value was 596.0 ± 469.4 s; the “Duration VT (ventricular tachycardia)” value came to 99.5 ± 77.95 s; the “Duration of all proarrhythmic events” value was 810.2 ± 461.4 s.

As to `N/C(=N\O)c1cccc(CN(NS(=O)(=O)c2ccc3ccccc3c2)C(=O)N2CCCCCC2)c1` [Compound V], in the assay with isolated rat hearts [1], the “Duration VF (ventricular fibrillation)” value turned out to be 149.3 ± 86.4 s; the “Duration VT (ventricular tachycardia)” value amounted to 60.0 ± 30.8 s; the “Duration of all proarrhythmic events” value is listed as 278.3 ± 104.2 s.
